{"source": "patent US20190351002A1", "about": "“METHOD OF TREATING CANCER, PARASITE, MICROBIAL OR FUNGAL DISEASE” (priority 2017, published 2019)", "key": {"Toxoplasma gondii": {"tested_on": "Toxoplasma gondii", "assay": "ELISA test of efficiency against Toxoplasma gondii in infected Hep2 cells", "type": "cell-based", "conditions": "48 hour", "excerpt": "An ELISA (Enzyme-Linked Immunosorbent Assay) test (FIG. 3) has been planned and conducted in order to determine efficiency against Toxoplasma gondii.\nThe ELISA test has been carried out on flat bottom well plates having 96 wells. First of all, the bases of the plates have been covered with a suitable amount of Hep2 cells. […] Following this all wells have been processed again with different doses (determined with MTT) of pyrimtheamine, sulphadiazine—and Ginger (Zingiber officinals) extract, prepared with DMSO.\n1 Following all of these procedures, the supernatants were removed from the wells and were retained for 10 minutes with 100 μl cold methanol. • The plates which were ready for the ELISA process were then worked.\nThe result was read by the ELISA reader device in 30 minutes."}, "[1]": {"tested_on": "Hep2 (Human Epidermoid Larynx ca) cells", "assay": "MTT cytotoxicity test on Hep2 cell line", "type": "cell-based", "excerpt": "The oils of the plant as an extract are used which have been obtained by cold pressing and it has been ensured that the extract is fresh and pure. The extracts that have been obtained through the whole study have been initially diluted with solvents, filtered and sterilized. Cytotoxicity study (MTT test) has been developed as a method regarding the Hep2 cell line in all parameters for initial doses. The maximum dose and dilution sub doses that have been determined accordingly have been repeated controlled groups. Different amounts of Hep2 cells have been tested in flat bottomed 96 well plates for cell culture during the first stage of the study and it has been determined that 2×10^4 cells were optimal for the monolayer layer of 2×10^4 cell per well. A pure oil of Zingiber officinale extract, which has been tested inside various solvents in terms of penetration into cells and homogenous distribution. MTT tests have been carried out relating to Hep2 cells in solvents too. DMSO was selected from solvents such as DMSO and Methanol and was used and cytopathic doses have not been exceeded during the whole study (FIG. 1). Essential oil has been obtained from Ginger and emulsions have been obtained from fixed oil plants (Nigella Sativa etc.) and compounds. According to MTT test (FIG. 2) results that belong to Zingiber officinale, the average OD values of the control group have been determined as 1.38."}}}
{"smiles": "CCc1nc(N)nc(N)c1-c1ccc(Cl)cc1", "note": "[Pyrimethamine]", "values": [{"measurement": "ELISA OD value / reproduction according to positive control (PK)", "setting": "Toxoplasma gondii; 0.5 μg/ml", "result": 75, "unit": "%"}, {"measurement": "ELISA OD value / reproduction according to positive control (PK)", "setting": "Toxoplasma gondii; 4 μg/ml", "result": 45, "unit": "%"}, {"measurement": "ELISA OD value / reproduction according to positive control (PK)", "setting": "Toxoplasma gondii; 2nd dose (printed '2.1 and 0.5 μg/ml': 2 μg/ml)", "result": 56, "unit": "%"}, {"measurement": "ELISA OD value / reproduction according to positive control (PK)", "setting": "Toxoplasma gondii; 3rd dose", "result": 54, "unit": "%"}, {"measurement": "OD value (MTT test)", "setting": "[1]; 1 μg/ml", "result": 1.228}, {"measurement": "OD value (MTT test)", "setting": "[1]; 2 μg/ml", "result": 1.198}, {"measurement": "OD value (MTT test)", "setting": "[1]; 4 μg/ml", "result": 0.623}, {"measurement": "OD value (MTT test)", "setting": "[1]; 8 μg/ml", "result": 0.310}, {"measurement": "OD value (MTT test)", "setting": "[1]; 16 μg/ml", "result": 0.209}, {"measurement": "OD value (MTT test)", "setting": "[1]; 32 μg/ml", "result": 0.097}]}
{"smiles": "Nc1ccc(S(=O)(=O)Nc2ncccn2)cc1", "note": "[Sulphadiazine]", "values": [{"measurement": "OD value (MTT test)", "setting": "[1]; 50 μg/ml", "result": 1.002}, {"measurement": "OD value (MTT test)", "setting": "[1]; 100 μg/ml", "result": 0.827}, {"measurement": "OD value (MTT test)", "setting": "[1]; 200 μg/ml", "result": 0.254}]}
